# According to ChEMBL document CHEMBL5370568, “Discovery of Coixol Derivatives as Potent Anti-inflammatory Agents” (J Nat Prod, 2023):
# Activity calls are given as the source filed them. The rule behind the calls is not given here.
# Legend:
# RAW264.7 [1] = assay: Antiinflammatory activity in LPS-induced mouse RAW264.7 cells assessed as inhibition of NO production at 20 uM pretreated for 1 hr followed by LPS stimulation and measured after 24 hrs by griess reagent based assay relative to control; format: functional; conditions: time 25 hrs
# [2] = Cytotoxicity against mouse RAW264.7 cells incubated for 24 hrs by MTT assay; format: toxicity, cell-based
# Mus musculus [3] = assay: Antiinflammatory activity in ICR mouse model of xylene-induced auricle edema assessed as average weight of left ear at 20 mg/kg, IG pretreated for 1 hr followed by xylene addition and measured after 1 hr (reference value: 6.9 +/- 0.7 mg); format: functional; conditions: time 2 hrs
# Mus musculus [4] = assay: Antiinflammatory activity in ICR mouse model of xylene-induced auricle edema assessed as inhibition rate of ear swelling at 40 mg/kg, IG pretreated for 1 hr followed by xylene addition and measured after 1 hr relative to control; format: functional; conditions: po, time 2 hrs
# [5] = Inhibition of IL-1beta production in LPS-induced mouse RAW264.7 cells pretreated for 1 hr followed by LPS stimulation and measured after 24 hrs by ELISA; format: functional, cell-based
# Mus musculus [6] = assay: Antiinflammatory activity in ICR mouse model of xylene-induced auricle edema assessed as average weight of left ear at 40 mg/kg, IG pretreated for 1 hr followed by xylene addition and measured after 1 hr (reference value: 6.9 +/- 0.7 mg); format: functional; conditions: time 2 hrs
# Mus musculus [7] = assay: Antiinflammatory activity in ICR mouse model of xylene-induced auricle edema assessed as swelling degree at 20 mg/kg, IG pretreated for 1 hr followed by xylene addition and measured after 1 hr (reference value: 4.6 +/- 2 mg); format: functional; conditions: time 2 hrs
# Mus musculus [8] = assay: Antiinflammatory activity in ICR mouse model of xylene-induced auricle edema assessed as inhibition rate of ear swelling at 20 mg/kg, IG pretreated for 1 hr followed by xylene addition and measured after 1 hr relative to control; format: functional; conditions: po, time 2 hrs
# RAW264.7 [9] = assay: Antiinflammatory activity in LPS-induced mouse RAW264.7 cells assessed as inhibition of NO production by measuring downregulation of iNOS protein expression at 0.5 to 10 uM pretreated for 2 hr followed by LPS stimulation and measured after 24 hrs by Western blot analysis; format: functional, cell-based; conditions: dose 0.5-10 µM, time 26.0 hrs
# HEK-293T = assay: Inhibition of NO production in HEK293T cells expressing iNOS assessed as effect on iNOS dimerization at 0.1 to 10 uM measured after 24 hrs by griess reagent based assay; format: functional, cell-based; conditions: Homo sapiens, dose 0.1-10 µM
# [10] = Inhibition of TNF-alpha production in LPS-induced mouse RAW264.7 cells pretreated for 1 hr followed by LPS stimulation and measured after 24 hrs by ELISA; format: functional, cell-based
# Mus musculus [11] = assay: Antiinflammatory activity in ICR mouse model of xylene-induced auricle edema assessed as swelling degree at 40 mg/kg, IG pretreated for 1 hr followed by xylene addition and measured after 1 hr (reference value: 4.6 +/- 2 mg); format: functional; conditions: time 2 hrs
# RAW264.7 [12] = assay: Antiinflammatory activity in LPS-induced mouse RAW264.7 cells assessed as inhibition of NO production pretreated for 1 hr followed by LPS stimulation and measured after 24 hrs by griess reagent based assay; format: functional, cell-based
# Mus musculus [13] = assay: Antiinflammatory activity in ICR mouse model of xylene-induced auricle edema assessed as average weight of right ear at 40 mg/kg, IG pretreated for 1 hr followed by xylene addition and measured after 1 hr (reference value: 11.5 +/- 2.1 mg); format: functional; conditions: time 2 hrs
# [14] = Inhibition of IL-6 production in LPS-induced mouse RAW264.7 cells pretreated for 1 hr followed by LPS stimulation and measured after 24 hrs by ELISA; format: functional, cell-based
# Mus musculus [15] = assay: Antiinflammatory activity in ICR mouse model of xylene-induced auricle edema assessed as average weight of right ear at 20 mg/kg, IG pretreated for 1 hr followed by xylene addition and measured after 1 hr (reference value: 11.5 +/- 2.1 mg); format: functional; conditions: time 2 hrs
# [16] = Inhibition of TNF-alpha production in LPS-induced mouse RAW264.7 cells incubated for 24 hrs in presence of LPS by ELISA; format: functional, cell-based; conditions: RAW264.7, 24 h
# Mus musculus [17] = assay: Antiinflammatory activity in ICR mouse model of xylene-induced ear edema assessed as edema inhibition rate at 25 mg/kg, po pretreated for 1 hr followed by xylene addition and measured after 0.5 hr relative to control; format: functional; conditions: time 1.5 hrs
# [18] = Inhibition of IL-1beta production in LPS-induced mouse RAW264.7 cells incubated for 24 hrs in presence of LPS by ELISA; format: functional, cell-based; conditions: RAW264.7, 24 h
# RAW264.7 [19] = assay: Antiinflammatory activity in LPS-induced mouse RAW264.7 cells assessed as inhibition of NO production incubated for 24 hrs in presence of LPS by griess reagent based assay; format: functional, cell-based; conditions: RAW264.7, 24 h
# [20] = Inhibition of IL-6 production in LPS-induced mouse RAW264.7 cells incubated for 24 hrs in presence of LPS by ELISA; format: functional, cell-based; conditions: RAW264.7, 24 h
# RAW264.7 [21] = assay: Inhibition of NFkappaB signaling pathway in LPS-induced mouse RAW264.7 cells assessed as reduction in IkappaBalpha phosphorylation pretreated for 2 hrs followed by LPS stimulation and measured after 10 mins by Western blot analysis; format: cell-based; conditions: dose 0.5-2 µM, time 130.0 min
# RAW264.7 [22] = assay: Antiinflammatory activity in LPS-induced mouse RAW264.7 cells assessed as inhibition of NO production by measuring downregulation of iNOS protein expression at 2 to 8 uM pretreated for 2 hr followed by LPS stimulation and measured after 24 hrs by Western blot analysis; format: functional, cell-based; conditions: dose 2-8 µM, time 26.0 hrs
Compound,inhibition at 20 µM (RAW264.7 [1]),IC50 at 24 h [2],also measured
COc1ccc2c(c1)oc(=O)n2CCNC(=O)/C=C/c1cc2ccccc2o1,35.1%,> 100 µM,–
COc1ccc2c(c1)oc(=O)n2CCNC(=O)/C=C/c1ccco1,88.4%,> 100 µM,Activity (Mus musculus [3]): 9.5 mg; inhibition in vivo at 40 mg/kg (Mus musculus [4]): 35.3%; IC50 [5]: 11.6 µM; Activity (Mus musculus [6]): 8.1 mg; Activity (Mus musculus [7]): 3.2 mg; inhibition in vivo at 20 mg/kg (Mus musculus [8]): 30.9%; Activity (RAW264.7 [9]): Active; inhibition (HEK-293T): inactive; IC50 [10]: 7.5 µM; Activity (Mus musculus [11]): 3 mg; IC50 (RAW264.7 [12]): 2.4 µM; Activity (Mus musculus [13]): 11 mg; IC50 [14]: 8.8 µM; Activity (Mus musculus [15]): 12.7 mg
COc1ccc2oc(=O)n(CCNC(=O)/C=C/c3ccco3)c2c1,56.2%,> 100 µM,–
COc1ccc2c(c1)oc(=O)n2CCNC(=O)/C=C/c1ccccc1Cl,10.7%,> 100 µM,–
COc1ccc(C(C)=O)c(OCCNC(=O)/C=C/c2cc(OC)c(OC)c(OC)c2)c1,88.8%,–,–
COc1ccc2c(c1)oc(=O)n2CCNC(=O)/C=C/c1ccc(Cl)cc1,38.3%,> 100 µM,–
COc1ccc2c(c1)oc(=O)n2CCNC(=O)/C=C/c1ccc(C(F)(F)F)cc1,42%,69.5 µM,–
COc1ccc2c(c1)oc(=O)n2CCNC(=O)/C=C/c1ccc(C)o1,43.2%,> 100 µM,–
COc1ccc2c(c1)oc(=O)n2CCNC(=O)/C=C/c1ccccn1,42.8%,> 100 µM,–
O=C(/C=C/c1ccco1)NCCn1c(=O)oc2cc(Br)ccc21,75.3%,68.9 µM,–
COc1ccc2c(c1)oc(=O)n2CCNC(=O)/C=C/c1cccs1,36.1%,> 100 µM,–
COc1ccc2c(c1)oc(=O)n2CCNC(=O)/C=C/c1ccc(OC)c(OC)c1,8.9%,> 100 µM,–
COc1ccc2c(c1)oc(=O)n2CCNC(=O)/C=C/c1cccc(Cl)c1,5.2%,> 100 µM,–
COc1ccc2c(c1)oc(=O)n2CCNC(=O)/C=C/c1ccc(C)cc1,30.2%,> 100 µM,–
COc1ccc2c(c1)oc(=O)n2CCNC(=O)/C=C/c1ccccc1,30.2%,> 100 µM,–
COc1ccc2c(c1)oc(=O)n2CCNC(=O)/C=C/c1ccc(O)cc1,45.4%,59 µM,–
O=C(/C=C/c1ccco1)NCCn1c(=O)oc2ccccc21,63.2%,> 100 µM,–
COc1ccc2c(c1)oc(=O)n2CCNC(=O)/C=C/c1ccc(O)c(OC)c1,7.2%,> 100 µM,–
COc1ccc(/C=C/C(=O)NCCn2c(=O)oc3cc(OC)ccc32)cc1,45.9%,68.8 µM,–
COc1ccc2c(c1)oc(=O)n2CCNC(=O)/C=C/c1ccoc1,30.3%,> 100 µM,–
COc1ccc2[nH]c(=O)oc2c1 [COIXOL],7.4%,> 100 µM,IC50 [5]: 66.4 µM; IC50 [10]: 31.2 µM; IC50 [14]: 48.9 µM
COc1ccc2c(c1)oc(=O)n2CCNC(=O)/C=C/c1ccc(Br)o1,25.8%,> 100 µM,–
COc1ccc2c(c1)oc(=O)n2CCNC(=O)/C=C/c1ccccc1OC,6.4%,80.2 µM,–
Cc1ccc(-c2cc(C(F)(F)F)nn2-c2ccc(S(N)(=O)=O)cc2)cc1 [CELECOXIB],62.4%,–,IC50 [16]: 41.2 µM; Activity (Mus musculus [3]): 8.3 mg; inhibition in vivo at 25 mg/kg (Mus musculus [17]): 30.9%; IC50 [5]: 14.6 µM; Activity (Mus musculus [7]): 3.4 mg; inhibition in vivo at 20 mg/kg (Mus musculus [8]): 27.4%; IC50 [18]: 17.9 µM; IC50 [10]: 12.2 µM; IC50 (RAW264.7 [19]): 17.9 µM; IC50 (RAW264.7 [12]): 21.1 µM; IC50 [20]: 36 µM; IC50 [14]: 13.7 µM; Activity (Mus musculus [15]): 11.6 mg
COc1ccc2c(c1)oc(=O)n2CCNC(=O)/C=C/c1ccc([N+](=O)[O-])o1,105%,38.8 µM,inhibition (RAW264.7 [21]): Dose-Dependent Effect; Activity (Mus musculus [3]): 7.2 mg; inhibition in vivo at 40 mg/kg (Mus musculus [4]): 56.6%; IC50 [5]: 11.8 µM; Activity (RAW264.7 [22]): Active; Activity (Mus musculus [6]): 8.5 mg; Activity (Mus musculus [7]): 2.4 mg; inhibition in vivo at 20 mg/kg (Mus musculus [8]): 47.1%; inhibition (HEK-293T): inactive; IC50 [10]: 10.9 µM; Activity (Mus musculus [11]): 2 mg; IC50 (RAW264.7 [12]): 0.8 µM; Activity (Mus musculus [13]): 10.5 mg; IC50 [14]: 10.3 µM; Activity (Mus musculus [15]): 9.7 mg
COc1ccc2c(c1)oc(=O)n2CCNC(=O)/C=C/c1ccc(F)cc1,4.4%,> 100 µM,–
COc1ccc2c(c1)oc(=O)n2CCNC(=O)/C=C/c1cc(OC)c(OC)c(OC)c1,51.1%,> 100 µM,IC50 (RAW264.7 [12]): 26 µM
COc1ccc2c(c1)oc(=O)n2CCNC(=O)c1ccco1,29.4%,> 100 µM,–
COc1cccc(/C=C/C(=O)NCCn2c(=O)oc3cc(OC)ccc32)c1,9.3%,> 100 µM,–
